*1 amine or outer side, *2 acyl side, *3 side chain or, on linkers, in order; H or OH if unused. Where a SMILES comes first, the peptide text is derived from it. Bridges are numbered along the chain shown (N, C = ends). [ ]: non-standard residue; d: D form. TATA = O=C(CC[*:1])N1CN(C(=O)CC[*:2])CN(C(=O)CC[*:3])C1; 1Nal = N[C@@H](Cc1cccc2ccccc12)C(=O)O; NMeT = CN[C@H](C(=O)O)[C@@H](C)O; hArg = N=C(N)NCCCC[C@H](N)C(=O)O
target: T1, human Nectin-4 (Homo sapiens, UniProt Q96NY8); experiment: Nectin-4 competition binding assay (fluorescence polarisation); settings: competition with fluorescent peptide SEQ ID NO: 217; read-out: Ki
T1 sequence (Q96NY8 32-510): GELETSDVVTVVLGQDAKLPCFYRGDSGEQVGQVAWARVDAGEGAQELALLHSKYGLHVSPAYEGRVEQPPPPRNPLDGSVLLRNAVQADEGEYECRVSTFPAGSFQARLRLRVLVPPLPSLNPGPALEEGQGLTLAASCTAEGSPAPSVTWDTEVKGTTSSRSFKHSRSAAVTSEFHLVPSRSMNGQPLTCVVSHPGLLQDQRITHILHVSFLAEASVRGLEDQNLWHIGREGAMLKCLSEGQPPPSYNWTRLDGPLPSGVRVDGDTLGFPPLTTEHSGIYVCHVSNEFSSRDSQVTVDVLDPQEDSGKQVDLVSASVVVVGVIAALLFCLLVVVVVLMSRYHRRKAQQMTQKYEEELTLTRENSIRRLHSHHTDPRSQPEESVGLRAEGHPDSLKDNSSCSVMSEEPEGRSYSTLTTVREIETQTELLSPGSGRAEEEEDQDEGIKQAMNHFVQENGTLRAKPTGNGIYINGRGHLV
Outline: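 Ki derived by cubic-equation fit of mP data, with tracer peptide concentration, its Kd and Nectin-4 level as fixed inputs. Competition set up by adding 2-fold peptide dilutions (≤5% DMSO), then Nectin-4, then fluorescent peptide; polarisation measured as for direct binding.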

Row | SMILES | Ki [nM]
1 | CC[C@H](C)[C@@H]1NC(=O)[C@@H]2CCCN2C(=O)[C@H](Cc2c[nH]c3ccccc23)NC(=O)[C@H](CO)NC(=O)[C@H](Cc2cccc3ccccc23)NC(=O)[C@H](CC(N)=O)NC(=O)[C@H](CCCCN)NC(=O)[C@H](CCSC)NC(=O)[C@@H]2CSCCC(=O)N3CN(CN(C3)C(=O)CCSC[C@H](NC(C)=O)C(=O)N3CCC[C@H]3C(=O)N[C@@H](Cc3ccccc3)C(=O)NCC(=O)N2)C(=O)CCSC[C@@H](C(N)=O)NC(=O)[C@H](Cc2c[nH]c3ccccc23)NC1=O [BCY7663, Ac-(SEQ ID NO: 111)] | 25.5
2 | CC[C@H](C)[C@@H]1NC(=O)[C@@H]2CCCN2C(=O)[C@H]([C@@H](C)O)NC(=O)[C@H](CO)NC(=O)[C@H](Cc2c[nH]c3ccccc23)NC(=O)[C@H](CC(N)=O)NC(=O)[C@H](CCCCN)NC(=O)[C@H](CCSC)NC(=O)[C@@H]2CSCCC(=O)N3CN(CN(C3)C(=O)CCSC[C@H](NC(C)=O)C(=O)N3CCC[C@H]3C(=O)N[C@@H](Cc3ccccc3)C(=O)NCC(=O)N2)C(=O)CCSC[C@@H](C(N)=O)NC(=O)[C@H](Cc2c[nH]c3ccccc23)NC1=O [BCY7665, Ac-(SEQ ID NO: 19)] (Ac-CPFGCMKNWSTPIWC-NH2; linker 1-5-15 via TATA; C-terminus assumed) | 24.1
3 | CC[C@H](C)[C@@H]1NC(=O)[C@@H]2CCCN2C(=O)[C@H]([C@@H](C)O)NC(=O)[C@H](CO)NC(=O)[C@H](Cc2c[nH]c3ccccc23)NC(=O)[C@H](CCCCN)NC(=O)[C@H](CCCCNC(=N)N)NC(=O)[C@H](CCSC)NC(=O)[C@@H]2CSCCC(=O)N3CN(CN(C3)C(=O)CCSC[C@H](NC(C)=O)C(=O)N3CCC[C@H]3C(=O)N[C@@H](Cc3ccccc3)C(=O)N[C@H](CC(=O)O)C(=O)N2)C(=O)CCSC[C@@H](C(N)=O)NC(=O)[C@H](Cc2c[nH]c3ccccc23)NC1=O [BCY7822, Ac-(SEQ ID NO: 122)] | 27
4 | CC[C@H](C)[C@@H]1NC(=O)[C@@H]2CCCN2C(=O)[C@H]([C@@H](C)O)NC(=O)[C@H](CO)NC(=O)[C@H](Cc2c[nH]c3ccccc23)NC(=O)[C@H](CC(N)=O)NC(=O)[C@H](CCCCNC(=N)N)NC(=O)[C@H](CCSC)NC(=O)[C@@H]2CSCCC(=O)N3CN(CN(C3)C(=O)CCSC[C@H](NC(C)=O)C(=O)N3CCC[C@H]3C(=O)N[C@@H](Cc3ccccc3)C(=O)N[C@H](CCC(=O)O)C(=O)N2)C(=O)CCSC[C@@H](C(N)=O)NC(=O)[C@H](Cc2c[nH]c3ccccc23)NC1=O [BCY7903, Ac-(SEQ ID NO: 140)] | 41
5 | CC[C@H](C)[C@@H]1NC(=O)[C@@H]2CCCN2C(=O)[C@H]([C@@H](C)O)NC(=O)[C@H](CO)NC(=O)[C@H](Cc2c[nH]c3ccccc23)NC(=O)[C@H](CC(N)=O)NC(=O)[C@H](CCCCNC(=N)N)NC(=O)[C@H](CCSC)NC(=O)[C@@H]2CSCCC(=O)N3CN(CN(C3)C(=O)CCSC[C@H](NC(C)=O)C(=O)N3CCC[C@H]3C(=O)N[C@@H](Cc3ccccc3)C(=O)N[C@H](CO)C(=O)N2)C(=O)CCSC[C@@H](C(N)=O)NC(=O)[C@H](Cc2c[nH]c3ccccc23)NC1=O [BCY7907, Ac-(SEQ ID NO: 143)] | 10
6 | CC[C@H](C)[C@@H]1NC(=O)[C@H](CCCNC(=N)N)NC(=O)[C@H](CC(N)=O)NC(=O)[C@@H]2CSCCC(=O)N3CN(CN(C3)C(=O)CCSC[C@H](NC(=O)[C@H](Cc3c[nH]c4ccccc34)NC(=O)[C@H](CCCCN)NC(=O)[C@H](CCC(N)=O)NC(C)=O)C(=O)N[C@@H](C)C(=O)N3CCC[C@H]3C(=O)N[C@@H](CC(C)C)C(=O)N[C@@H](CO)C(=O)N[C@@H](CC(=O)O)C(=O)N[C@@H](Cc3ccc(O)cc3)C(=O)N[C@@H](Cc3cccc4ccccc34)C(=O)N2)C(=O)CCSC[C@@H](C(N)=O)NC1=O [BCY7998, Ac-QKW-(SEQ ID NO: 153)] (Ac-QKWCAPLSDY[1Nal]CNRIC-NH2; linker 4-12-16 via TATA; C-terminus assumed) | 135
7 | CC[C@H](C)[C@@H]1NC(=O)[C@H](CCCNC(=N)N)NC(=O)[C@H](CC(N)=O)NC(=O)[C@@H]2CSCCC(=O)N3CN(CN(C3)C(=O)CCSC[C@H](NC(C)=O)C(=O)N[C@@H](C)C(=O)N3CCC[C@H]3C(=O)N[C@@H](CC(C)C)C(=O)N[C@@H](CO)C(=O)N[C@@H](CC(=O)O)C(=O)N[C@@H](Cc3ccc(O)cc3)C(=O)N[C@@H](Cc3c[nH]c4ccccc34)C(=O)N2)C(=O)CCSC[C@@H](C(N)=O)NC1=O [BCY8044, Ac-(SEQ ID NO: 34)] (Ac-CAPLSDYWCNRIC-NH2; linker 1-9-13 via TATA; C-terminus assumed) | 170

Continued by falling Ki, values first:

Row | Ki [nM] | SMILES
8 | 191 | CC[C@H](C)[C@@H]1NC(=O)[C@@H]2CCCN2C(=O)[C@H]([C@@H](C)O)N(C)C(=O)[C@H](CO)NC(=O)[C@H](Cc2c[nH]c3ccccc23)NC(=O)[C@H](CC(N)=O)NC(=O)[C@H](CCCCNC(=N)N)NC(=O)[C@@H]2CSCCC(=O)N3CN(CN(C3)C(=O)CCSC[C@H](NC(C)=O)C(=O)N3CCC[C@H]3C(=O)N[C@@H](Cc3ccccc3)C(=O)N[C@H](CC(=O)O)C(=O)N2)C(=O)CCSC[C@@H](C(N)=O)NC(=O)[C@H](Cc2c[nH]c3ccccc23)NC1=O [BCY7979, Ac-(SEQ ID NO: 152)] (Ac-CPF[dD]C[hArg]NWS[NMeT]PIWC-NH2; linker 1-5-14 via TATA; C-terminus assumed)
9 | 177 | CC[C@H](C)[C@H]1C(=O)N[C@@H](Cc2c[nH]c3ccccc23)C(=O)N[C@H](C(N)=O)CSCCC(=O)N2CN3CN(C2)C(=O)CCSC[C@H](NC(C)=O)C(=O)N2CCC[C@H]2C(=O)N[C@@H](Cc2ccccc2)C(=O)N[C@H](CC(=O)O)C(=O)N[C@@H](CSCCC3=O)C(=O)N[C@@H](CCSC)C(=O)N[C@@H](CCCCNC(=N)N)C(=O)N[C@@H](CC(N)=O)C(=O)N[C@@H](Cc2c[nH]c3ccccc23)C(=O)N[C@@H](CO)C(=O)N[C@@H]([C@@H](C)O)C(=O)N2CCC[C@H]2C(=O)N1C [BCY8158, Ac-(SEQ ID NO: 176)]
10 | 61.9 | CC[C@H](C)[C@@H]1NC(=O)[C@@H]2CCCN2C(=O)[C@H]([C@@H](C)O)NC(=O)[C@H](CO)NC(=O)[C@H](Cc2c[nH]c3ccccc23)NC(=O)[C@H](CC(N)=O)NC(=O)[C@H](CCCCNC(=N)N)NC(=O)[C@H](CCSC)NC(=O)[C@@H]2CSCCC(=O)N3CN(CN(C3)C(=O)CCSC[C@H](NC(=O)[C@H](CC(=O)O)NC(=O)[C@H](CC(=O)O)NC(=O)[C@H](CC(=O)O)NC(C)=O)C(=O)N3CCC[C@H]3C(=O)N[C@@H](Cc3ccccc3)C(=O)N[C@H](CC(=O)O)C(=O)N2)C(=O)CCSC[C@@H](C(N)=O)NC(=O)[C@H](Cc2c[nH]c3ccccc23)NC1=O [BCY8028, Ac-DDD-(SEQ ID NO: 115)]
11 | 21.4 | CC[C@H](C)[C@@H]1NC(=O)[C@@H]2CCCN2C(=O)[C@H]([C@@H](C)O)NC(=O)[C@H](CO)NC(=O)[C@H](Cc2c[nH]c3ccccc23)NC(=O)[C@H](CC(N)=O)NC(=O)[C@H](CCCCNC(=N)N)NC(=O)[C@H](CC(C)C)NC(=O)[C@@H]2CSCCC(=O)N3CN(CN(C3)C(=O)CCSC[C@H](NC(C)=O)C(=O)N3CCC[C@H]3C(=O)N[C@@H](Cc3ccccc3)C(=O)N[C@H](CC(=O)O)C(=O)N2)C(=O)CCSC[C@@H](C(N)=O)NC(=O)[C@H](Cc2c[nH]c3ccccc23)NC1=O [BCY8039, Ac-(SEQ ID NO: 161)] (Ac-CPF[dD]CL[hArg]NWSTPIWC-NH2; linker 1-5-15 via TATA; C-terminus assumed)
12 | 14.8 | CC[C@H](C)[C@@H]1NC(=O)[C@@H]2CCCN2C(=O)[C@H](Cc2c[nH]c3ccccc23)NC(=O)[C@H](CO)NC(=O)[C@H](Cc2c[nH]c3ccccc23)NC(=O)[C@H](Cc2c[nH]cn2)NC(=O)[C@H](CCCCN)NC(=O)[C@H](CCSC)NC(=O)[C@@H]2CSCCC(=O)N3CN(CN(C3)C(=O)CCSC[C@H](NC(C)=O)C(=O)N3CCC[C@H]3C(=O)N[C@@H](Cc3ccccc3)C(=O)NCC(=O)N2)C(=O)CCSC[C@@H](C(N)=O)NC(=O)[C@H](Cc2c[nH]c3ccccc23)NC1=O [BCY7662, Ac-(SEQ ID NO: 16)] (Ac-CPFGCMKHWSWPIWC-NH2; linker 1-5-15 via TATA; C-terminus assumed)
13 | 8 | CC[C@H](C)[C@@H]1NC(=O)[C@@H]2CCCN2C(=O)[C@H]([C@@H](C)O)NC(=O)[C@H](CO)NC(=O)[C@H](Cc2c[nH]c3ccccc23)NC(=O)[C@H](CC(N)=O)N(C)C(=O)[C@H](CCCCNC(=N)N)NC(=O)[C@H](CCSC)NC(=O)[C@@H]2CSCCC(=O)N3CN(CN(C3)C(=O)CCSC[C@H](NC(C)=O)C(=O)N3CCC[C@H]3C(=O)N[C@@H](Cc3ccccc3)C(=O)N[C@H](CC(=O)O)C(=O)N2)C(=O)CCSC[C@@H](C(N)=O)NC(=O)[C@H](Cc2c[nH]c3ccccc23)NC1=O [BCY8154, Ac-(SEQ ID NO: 174)]
14 | 3.5 | CSCC[C@@H]1NC(=O)[C@@H]2CSCCC(=O)N3CN(CN(C3)C(=O)CCSC[C@H](NC(C)=O)C(=O)N3CCC[C@H]3C(=O)N[C@@H](Cc3cccc4ccccc34)C(=O)N[C@H](CC(=O)O)C(=O)N2)C(=O)CCSC[C@@H](C(N)=O)NC(=O)[C@H](Cc2c[nH]c3ccccc23)NC(=O)[C@@H]2C[C@@H](O)CN2C(=O)[C@@H]2CCCN2C(=O)[C@H]([C@@H](C)O)NC(=O)[C@H](CO)NC(=O)[C@H](Cc2c[nH]c3ccccc23)NC(=O)[C@H](CC(=O)O)NC(=O)[C@H](CCNC(=N)N)NC1=O [BCY8181, Ac-(SEQ ID NO: 186)]
